In article PMC6881072, “The repositioning of epigenetic probes/inhibitors identifies new anti-schistosomal lead compounds and chemotherapeutic targets” (PLoS Neglected Tropical Diseases, 2019):

Columns and labels:
Type in all cases: cell-based, Schistosoma mansoni
[1] = system: H3K36me2; experiment: H3K36me2 detection in adult worm histone extracts; settings: siRNA 50 ng/μl, adult worms, vs siLuc
Protocol: LLY-507 (6.25 μM), BAY-598 (25 μM) or siSmp_000700 treated male and female worms (alongside DMSO or siLuc controls; 21 individuals per condition) were homogenized with a TissueLyser (Qiagen) and total histones extracted using the EpiQuik^TM Total Histone Extraction Kit (Epigentek). Levels of H3K36me2 in adult histone extracts were measured using the EpiQuik^TM Global Di-Methyl Histone H3-K36 Quantification Kit (Fluorimetric, Epigentek). Technical duplicates of three biological replicates of each treatment were analysed according to the manufacturer’s instructions. Fluorescent readings (530EX/590EM nm) were obtained using a POLARstar Omega (BMG Labtech, UK) microtiter plate reader. Fluorescent values of the samples were corrected by subtracting the fluorescent readings of the blank (buffer only, provided in the kit). The mean of the adjusted control values (DMSO for LLY-507/BAY-598 treated worms and siLuc for siSmp_000700 treated worms) was set at 100% H3K36me2 and the standard deviation (SD) was calculated from the normalised values.

[2] = system: smp_000700; experiment: RNAi knockdown assessment by qRT-PCR; settings: 48 h, vs siLuc
Protocol: (§1) Following the perfusion of 7 wks infected mice, adult worms were recovered and RNAi performed as previously described. Briefly, smp_000700 and non-specific luciferase siRNA duplexes were purchased from Sigma (siSmp_000700 = sense: GGUAAUCGGUCAUGUGUAU[dT][dT] and anti-sense: AUACACAUGACCGAUUACC[dT][dT]; siLuc = sense CUUACGCUGAGUACUUCGA[dT][dT] and anti-sense UCGAAGUACUCAGCGUAAG[dT][dT]) and used at a final concentration of 50 ng/μl. Mixed sex adult worm pairs (for knockdown assessment by quantitative reverse transcription PCR, qRT-PCR) were cultured at 37°C in DMEM supplemented with 10% FCS, 2 mM L-glutamine, […] HEPES (Sigma-Aldrich, UK), 100 Units/ml penicillin and 100 μg/ml streptomycin in an atmosphere of 5% CO2 with a 70% media exchange performed every 48 h. The experiment was replicated three times (21 worm pairs/replicate). Quantitative reverse transcription PCR (qRT-PCR) of smp_000700 abundance was performed at 48 h and adult worm motility as well as egg counts were quantified at 168 h. Levels of H3K36me2 detected in schistosome histone extracts were assessed at 72 h.
Following RNAi with siSmp_000700 and siLuc, mixed-sex adult worms were incubated for a total of 48 h before processing them for RNA isolation. […]

[3] = system: adult schistosome pairs; experiment: RNAi of adult schistosome pairs: motility and egg counts; settings: 168 h (7 days post-treatment), vs siLuc
Protocol: as §1

## siSmp_000700: siRNA duplex directed against smp_000700; sense GGUAAUCGGUCAUGUGUAU[dT][dT] (antisense AUACACAUGACCGAUUACC; 3' dTdT overhangs, further chemistry not given here)
[1]
  reduction in H3K36me2: 15%
[2]
  reduction of smp_000700 mRNA abundance (KD): 66%
[3]
  adult worm motility after RNAi: significant reduction in adult worm motility
  egg production after RNAi: egg production defects
